Results: US12280072B2, “Oligosaccharide compound for inhibiting intrinsic coagulation factor X-enzyme complex, and preparation method therefor and uses thereof” (Jiuzhitang Co., Ltd., priority 2017, dated 2025)

How the values were obtained:
human-controlled plasma [1] = experiment: Anticoagulant activity assay: APTT clotting time; assay type: biochemical
Procedure, shortened: (§1)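 Compounds in Tris-HCl buffer were serially diluted, and 10 μL was added to 90 μL human control plasma. PT and APTT clotting times were measured on an MC-4000 coagulometer following kit instructions.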

human-controlled plasma [2] = experiment: Anticoagulant activity assay: PT clotting time; assay type: biochemical
Procedure, shortened: as §1

plasma = experiment: TT (thrombin time) clotting time; assay type: biochemical
intrinsic factor Xase = molecular target: T1, intrinsic factor Xase (Homo sapiens, UniProt P00740); experiment: Xase inhibitory activity assay; assay type: biochemical; details: read-out: Drug concentration required to inhibit 50% of coagulation factor activity (IC50, ng/mL) Xase (converted)
T1 construct: 60 nM FIXa; purchased
Procedure, shortened: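 Reagents mixed at 37 °C: compound with FVIII (2 IU/ml) and FIXa reagent (60 nM, with FIIa, PC/PS, Ca2+) for 2 min, then FX reagent (50 nM, with thrombin inhibitor) for 1 min, then chromogenic substrate SXa-11. OD405 slope over 7.5 min, relative to buffer control as 100%; IC50 from Hill-equation fit.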

FXa (Homo sapiens) = molecular target: T2, FXa (Homo sapiens); experiment: AT-dependent Xa inhibitory activity assay; assay type: biochemical; details: in presence of AT; read-out: Drug concentration required to inhibit 50% of coagulation factor activity (IC50, ng/mL) Xa (AT)
T2 construct: 8 μg/mL FXa solution; purchased
Procedure, shortened: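 Sample preincubated 1 min at 37 °C with antithrombin (1 IU/mL solution), then FXa (8 µg/mL solution) 1 min, then chromogenic substrate SXa-11 (1.25 mM solution). Rate of OD405 change gives residual FXa activity relative to buffer control; duplicates, IC50 fitted with a Hill equation.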

FIIa (Homo sapiens) = molecular target: T3, FIIa (Homo sapiens); experiment: AT-dependent IIa inhibitory activity assay; assay type: biochemical; details: in presence of AT; read-out: Drug concentration required to inhibit 50% of coagulation factor activity (IC50, ng/mL) Ha (AT)
T3 construct: antithrombin (i.e., active coagulation factor IIa); purchased
Procedure, shortened: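 Sample preincubated with 1 IU/mL antithrombin 2 min at 37 °C, then 24 IU/mL FIIa 2 min, then 1.25 mM chromogenic substrate CS-01 (stock concentrations). OD405 rate relative to buffer control gave residual activity; IC50 from Hill-equation fit.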

[3] = system: inferior vena cava thrombosis; experiment: Anti-venous thrombosis experiment (rabbit brain powder infusion plus ligation); assay type: in vivo, SD rats; details: rats, sc., experimental dose (2.5, 5.0, 10 mg/kg)
Method: Grouping and Administration: Rats were randomly divided into 8 groups with 8 animals in each group. The experimental groups and the dose of the animals in each group were (1) natural saline (NS) control group; (2) LMWH 4.0 mg/kg group; (3) A2 2.5 mg/kg group; (4) A2 group 5.0 mg/kg; (5) A2 10 mg/kg group; (6) D1 2.5 mg/kg group; (7) D1 5.0 mg/kg group; (8) D1 10 mg/kg group. The rats in each group were administered subcutaneously (sc.) into the back, and the administration volume was 1 mL/kg. The modeling experiment was performed 1 hour after administration. A New Zealand rabbit was sacrificed, and the rabbit brain was taken out immediately. Rabbit brain powder infusion was prepared according to the literature method (Thromb Haemost, 2010, 103(5): 994-1004), and stored at −20° C. for use. […] The femoral vein was injected with 2% rabbit brain powder infusion (1 mL/kg). After 20 seconds, the lower margin of the left renal vein was ligated. After the operation, the viscera was placed back into the abdominal cavity and covered with medical gauze (infiltrated with natural saline). […] The length of the thrombus was measured, and the wet weight of the thrombus was weighed and then dry weight was weighed after drying at 50° C. for 24 h. The SPSS software was used to organize and analyze the data, and the measurement data were expressed as mean±standard deviation (x±s). […]

mouse tail bleeding = experiment: Bleeding tendency detection (tail-clipping method); assay type: in vivo; details: mice, sc., high dose of equal multiple of the equivalent antithrombotic dose, vs LMWH
Method: Grouping and administration: Mice were randomly divided into 10 groups with 8 animals in each group. The experimental groups and the dose of the animals in each group were (1) natural saline (NS) control group; (2) LMWH 4.0 mg/kg group; (2) LMWH 20 mg/kg group; (3) LMWH 100 mg/Kg group; (4) A2 5 mg/kg group; (5) A2 25 mg/kg group; (6) A2 125 mg/kg group; (7) D1 5 mg/kg group; (8) D1 25 mg/Kg group; (10) D1 125 mg/kg group. The […] in each group were administered subcutaneously (sc.) into the back, and the dose volume was 10 mL/kg.
After 60 min of subcutaneous administration in each experimental group, the mice were placed in a mouse holder, and the tail tip was cut by 5 mm by tail-clipping method, and the mouse tail was immersed in 40 mL of purified water (37° C.) in the beaker. […] At 60 min, the beaker was placed for 60 min and then the absorbance of the solution (OD540) was detected by a UV spectrophotometer.
In addition, whole blood of healthy mice was taken, and the whole blood of different volumes of mice was added to 40 mL of purified water, stirred uniformly and allowed to stand for 60 min. The absorbance (OD540) of the solution was detected by the same method and the volume-absorbance curve was plotted and used as the standard curve for calculating the amount of bleeding. The amount of bleeding in each experimental group was calculated by the standard curve. […]

T2 sequence (P01008 33-464): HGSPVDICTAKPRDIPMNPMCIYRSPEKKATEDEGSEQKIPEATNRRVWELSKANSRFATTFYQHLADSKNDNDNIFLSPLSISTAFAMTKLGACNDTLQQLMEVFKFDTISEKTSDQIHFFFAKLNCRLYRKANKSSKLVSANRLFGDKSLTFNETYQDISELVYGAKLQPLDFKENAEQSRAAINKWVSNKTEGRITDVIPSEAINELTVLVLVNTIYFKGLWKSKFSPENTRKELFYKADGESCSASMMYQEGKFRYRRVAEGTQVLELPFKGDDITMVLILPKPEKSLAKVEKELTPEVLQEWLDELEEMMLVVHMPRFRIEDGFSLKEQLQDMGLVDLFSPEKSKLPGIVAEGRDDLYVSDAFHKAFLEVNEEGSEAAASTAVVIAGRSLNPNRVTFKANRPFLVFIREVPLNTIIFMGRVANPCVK
T3 sequence (P01008 33-464): as above
T1 sequence (P00740 47-191 limits assumed): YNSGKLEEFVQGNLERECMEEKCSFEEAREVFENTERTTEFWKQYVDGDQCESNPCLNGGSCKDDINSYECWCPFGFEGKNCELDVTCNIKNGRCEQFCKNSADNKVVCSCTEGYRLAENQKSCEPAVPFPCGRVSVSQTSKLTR
T1 sequence (P00740 227-461 limits assumed): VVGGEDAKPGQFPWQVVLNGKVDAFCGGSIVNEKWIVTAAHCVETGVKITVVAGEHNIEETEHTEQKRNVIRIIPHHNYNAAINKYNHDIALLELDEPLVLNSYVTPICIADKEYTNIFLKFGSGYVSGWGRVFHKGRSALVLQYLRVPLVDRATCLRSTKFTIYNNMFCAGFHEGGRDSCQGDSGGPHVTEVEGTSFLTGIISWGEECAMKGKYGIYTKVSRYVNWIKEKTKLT

IC50 (intrinsic factor Xase): 23.8 nM
IC50 (FXa (Homo sapiens)): > 1970 nM
IC50 (FIIa (Homo sapiens)): > 1970 nM
Compound: CC(=O)NC(CO)C(OC1OC(C(=O)O)C(OC2OC(COS(=O)(=O)O)C(OS(=O)(=O)O)C(OC3OC(C(=O)O)C(OC4OC(COS(=O)(=O)O)C(OS(=O)(=O)O)C(OC5OC(C(=O)O)=CC(OC6OC(C)C(OS(=O)(=O)O)C(O)C6OS(=O)(=O)O)C5O)C4NC(C)=O)C(OC4OC(C)C(OS(=O)(=O)O)C(O)C4OS(=O)(=O)O)C3O)C2NC(C)=O)C(OC2OC(C)C(OS(=O)(=O)O)C(O)C2OS(=O)(=O)O)C1O)C(OS(=O)(=O)O)C(O)COS(=O)(=O)O [Compound A2, L-Fuc2S4S-(α1,3)-ΔUA-(α1,3)-{D-GaNAc4S6S-(β1,4)-[L-Fuc2S4S-(α1,3)]-D-GlcA-(β1,3)}n+1-D-GalNAc4S6S-ol]
Drug concentration required for multiplication of coagulation time (μg/mL) APTT (human-controlled plasma [1]): 7.2 µg/mL
Drug concentration required for multiplication of coagulation time (μg/mL) PT (human-controlled plasma [2]): # (>128 μg/mL)
Drug concentration required for multiplication of coagulation time (μg/mL) TT (plasma): # (>128 μg/mL)
antithrombotic activity [3]: significant antithrombotic activity
amount of bleeding (mouse tail bleeding): significantly lower than that in LMWH administration group
